Data set [1] concerns the target T1, Transketolase (Homo sapiens, UniProt P29401).
T1 sequence (P29401 whole entry): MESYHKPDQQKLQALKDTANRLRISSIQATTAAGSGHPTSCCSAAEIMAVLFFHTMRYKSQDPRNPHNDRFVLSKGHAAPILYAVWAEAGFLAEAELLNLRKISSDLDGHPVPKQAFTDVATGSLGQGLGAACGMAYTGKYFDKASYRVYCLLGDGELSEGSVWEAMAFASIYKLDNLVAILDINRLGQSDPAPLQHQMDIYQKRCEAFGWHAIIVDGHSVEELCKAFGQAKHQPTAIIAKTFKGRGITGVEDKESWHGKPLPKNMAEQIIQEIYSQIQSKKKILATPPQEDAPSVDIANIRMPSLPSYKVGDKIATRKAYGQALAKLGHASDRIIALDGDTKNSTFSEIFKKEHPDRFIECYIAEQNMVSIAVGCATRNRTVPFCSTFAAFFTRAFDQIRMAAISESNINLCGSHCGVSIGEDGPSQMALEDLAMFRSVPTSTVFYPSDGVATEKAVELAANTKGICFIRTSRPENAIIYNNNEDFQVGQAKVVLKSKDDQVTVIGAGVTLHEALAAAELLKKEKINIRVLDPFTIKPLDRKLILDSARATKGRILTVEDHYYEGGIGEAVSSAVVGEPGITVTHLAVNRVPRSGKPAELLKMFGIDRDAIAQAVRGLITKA
The data set can be described thus: Inhibition of transketolase in human HCT116 cells. The class given is cell-based, HCT-116.

Data set [2] is described as follows: Volume of distribution at steady state in rat at 3 mg/kg, iv. It counts as ADME, organism-based. On the set-up: dose 3 mg/kg, route intravenous. The note with it: in vivo, read-out: Vdss.
Data set [3] concerns Mus musculus. The data set is described as follows: Inhibition of transketolase in BALB/c mouse blood at 100 mg/kg, ip after 72 hrs. It counts as functional, organism-based. More on the design: dose 100 mg/kg.
Data set [4] is described as follows: Clearance in rat at 3 mg/kg, iv. The note with it: in vivo. On the set-up: dose 3 mg/kg, route intravenous. It counts as ADME, organism-based.
Data set [5] in a line: Mean residence time in rat at 3 mg/kg, iv. It counts as ADME, organism-based. On the set-up: dose 3 mg/kg, route intravenous. The note with it: in vivo.
A short description of data set [6]: AUC in rat at 3 mg/kg, iv. On the set-up: dose 3 mg/kg, route intravenous. The note with it: plasma. It counts as ADME, organism-based.
Data set [7] can be described thus: Cmax in rat at 3 mg/kg, iv. It counts as ADME, organism-based. More on the design: dose 3 mg/kg, route intravenous. The note with it: in vivo.

Results on 17 molecules are retold here after ChEMBL document CHEMBL1140822, “Prodrug thiamine analogs as inhibitors of the enzyme transketolase” (Bioorg Med Chem Lett, 2008).

SMILES strings stand for the structures. Activity calls are given as the source filed them. No cut-off for these calls is given here.

Broadly, the EC50 is the midpoint of the concentration-response curve. Read a high EC50 as a less potent agent. `C/C(=C1\CCOC(=O)S1)N(C=O)Cc1ccc(C)nc1N` came in with a half-maximal effective concentration (EC50) in data set [1] of 15 nM. In data set [1], `CC(=O)N(Cc1ccc(C)nc1N)/C(C)=C(/CCO)SS/C(CCO)=C(/C)N(Cc1ccc(C)nc1N)C(C)=O` showed an EC50 of 32 nM.

On to `Cc1ccc(C[n+]2csc(CCO)c2)c(N)n1`, for which the half-maximal effective concentration (EC50) in data set [1] was determined as 9540 nM. This EC50 lies about 300-fold higher than the previous one. As for `C/C(=C(\CCO)SS/C(CCO)=C(/C)N(C=O)Cc1ccc(Cl)nc1N)N(C=O)Cc1ccc(Cl)nc1N`, a half-maximal response in data set [1] (EC50) required 8 nM. Against the preceding molecule, the EC50 is about 1200-fold lower. In turn, `Cc1ccc(C[n+]2c(C)sc(CCO)c2C)c(N)n1` yielded an EC50 in data set [1] of 28 nM. In the case of `C/C(=C(\CCOC(=O)c1ccccc1)SC(=O)c1ccccc1)N(C=O)Cc1ccc(C)nc1N`, the EC50 in data set [1] turned out to be 28 nM. For `Cc1c(CCO)sc[n+]1Cc1cccnc1N`, in data set [1], a half-maximal effect (EC50) was put at 110 nM. Usually clearance stands for the volume of plasma or blood freed of the substance per unit of time. A high value points to a high capacity for elimination. The term MRT denotes the average time that molecules of a dose stay in the body. The AUC is the area under the concentration-time curve, a measure of exposure. The low end stands for less exposure, the high end for more exposure. In general, Cmax refers to the highest concentration seen after dosing. Regarding `C/C(=C(\CCO)SS/C(CCO)=C(/C)N(C=O)Cc1ccc(C)nc1N)N(C=O)Cc1ccc(C)nc1N`, in data set [2], the Vd amounted to 19.3 L/kg. For the same molecule, the result in data set [3] was Active. Further, the clearance in data set [4] came to 32.5 mL/min/kg. In data set [5], this molecule registered an MRT of 12.7 h. In data set [1], the EC50 was 12 nM. In data set [6], this molecule had an exposure (AUC) of 1590 ng·h/mL. In data set [7], the highest level (Cmax) was 1120 ng/mL. `Cc1ccc(C[n+]2csc(CCO)c2C)c(N)n1.[Cl-]`: the Vd in data set [2] came out at 1.98 L/kg. Further, the clearance in data set [4] came to 41.3 mL/min/kg. This molecule yielded an MRT in data set [5] of 0.72 h. This molecule returned an EC50 in data set [1] of 18 nM. This molecule had an exposure (AUC) in data set [6] of 1250 ng·h/mL. Besides, the maximum concentration (Cmax) in data set [7] stood at 6610 ng/mL. `C/C(=C(\CCO)SSCCC(=O)O)N(C=O)Cc1ccc(C)nc1N` registered a concentration for a half-maximal effect (EC50) in data set [1] of 52 nM. This lies in the double-digit nanomolar range.

With `C/C(=C(\CCO)SCOC(=O)C(C)(C)C)N(C=O)Cc1ccc(C)nc1N`, the Vd in data set [2] was 1.83 L/kg. The clearance in data set [4] was 0.63 mL/min/kg. The molecule further registered a mean residence time (MRT) in data set [5] of 48.3 h. A half-maximal response in data set [1] (EC50) required 116 nM. This molecule also yielded an AUC in data set [6] of 79200 ng·h/mL. This molecule also gave a peak concentration (Cmax) in data set [7] of 3020 ng/mL. `C/C(=C(\CCO)SSCCO)N(C=O)Cc1ccc(C)nc1N` came in with a concentration giving a half-maximal response (EC50) in data set [1] of 13 nM. Take `Cc1ccc(CN(C=O)/C=C(/CCO)SS/C(=C\N(C=O)Cc2ccc(C)nc2N)CCO)c(N)n1`: the EC50 in data set [1] turned out to be 102000 nM. Regarding `Cc1c(CCO)sc[n+]1Cc1ccc(Cl)nc1N`, the response in data set [1] was half-maximal at 9 nM (EC50). In data set [1], `CCCCS/C(CCO)=C(/C)N(C=O)Cc1ccc(C)nc1N` gave a concentration for a half-maximal effect (EC50) of 6000 nM. On the same count and under the same terms, next, `CC(=O)OCC/C(SC(C)=O)=C(\C)N(C=O)Cc1ccc(C)nc1N`: 8 nM; `C/C(=C(\CCO)SS/C(CCO)=C(/C)N(C=O)Cc1cccnc1N)N(C=O)Cc1cccnc1N`: 479 nM.
